Values after ≈ are worked out from the molar mass of the structure shown. Where two headings read alike, the source gives them in different places.
How the values were obtained:
[1] = test system: M. grisea; assay type: cell-based; settings: sterile water with different concentrations of test compound
[2] = test system: Colletotrichum gloeosporioides; test: Paper disc in the path of pathogen growth, growth and sporulation; assay type: cell-based; settings: compound on sterile paper disc
[3] = test system: Plasmopara viticola; assay type: cell-based; set-up: dose or concentration left out as unconfirmed; settings: Plasmopara viticola (spore germination)
[4] = test system: C. krusei ATCC-6258; test: MIC versus reference Candida strains (broth micro dilution); set-up: MICs (100% inhibition): unit not given beside the values; settings: for MIC: Pichia kudriavzevii
[5] = test system: C. albicans ATCC-24433; test: as above; set-up: MICs (100% inhibition): unit not given beside the values; settings: for MIC: Candida albicans
[6] = test system: Puccinia arachidis; test: Leaf disk assay; settings: Puccinia arachidis (leaf disc assay)
[7] = test system: Uncinula necator; test: Leaf disk assay; settings: Uncinula necator (leaf disc assay)
Method: Leaf disk assay was carried out by the cavity well plate method for powdery mildew disease of grapes. Leaf disks of 14 mm in diameter were cut with a cork borer from the healthy leaves (second and third from the tip) of grapevine plants, and were dipped in 100 μl of each test compound at different concentrations for two minutes, as in treatment details shown below. The control leaf disks were dipped only in sterile water for two minutes. The compound treated leaf disks were placed, abaxial side up, in TC-24 well plates containing water agar medium. The disks were inoculated by placing 20 μl of inoculum (1-5×10^6 spores/ml) on the centre of the disk. After inoculation, the cavity well plates were incubated at 20° C. for 10 days. After incubation, the powdery mildew lesions on the leaf disks were rated to 0-9 scale, in which, 0 was no visible symptoms and 9 represented more than 50% leaf area with mildew growth/lesion. Percent disease index (PDI) was calculated as follows: […]
After the observation, the conidia were washed from the leaf disks in known volume of a fixative solution of ethanol-formaldehyde-acetic acid (90:5:5, v/v/v) and counted with a hemocytometer.

[8] = test system: C. parapsilosis ATCC-90018; test: MIC versus reference Candida strains (broth micro dilution); set-up: MICs (100% inhibition): unit not given beside the values; settings: for MIC: Lodderomyces parapsilosis
[9] = test system: C. parapsilosis ATCC-22019; test: as above; set-up: MICs (100% inhibition): unit not given beside the values; settings: for MIC: Lodderomyces parapsilosis
[10] = test system: C. glabrata ATCC-90030; test: as above; set-up: MICs (100% inhibition): unit not given beside the values; settings: for MIC: Nakaseomyces glabratus
[11] = test system: C. albicans SC5314; test: as above; assay type: cell-based
[12] = test system: C. tropicalis ATCC-750; test: as above; set-up: MICs (100% inhibition): unit not given beside the values; settings: for MIC: Candida tropicalis
[13] = test system: Alternaria solani; test: In vitro mycelial growth inhibition, poisoned plate; assay type: cell-based; settings: 50 μg/ml
Method: (§1) Growth of fungi was carried out in potato dextrose agar media at […], and test compound was added at different concentrations and at pH 5.8 for compound X″ and at pH 7.0 for its potassium salt, compound XII″, with a water control instead of test compound. Radial mycelial growth was measured at regular intervals 4, 8, 12 and 16 days for slow growing fungi and at 3, 6 and 8 days for fast growing fungi. When the mycelia reached the end of the plate, measurements were stopped. Morphological changes in the hyphal growth and sporulation patterns were also observed. For dose response studies a range of concentrations and a range of inhibition obtained falling below and above 50% inhibition (see Table 23 below)

[14] = test system: Botrytis cinerea; test: as above; assay type: cell-based; settings: 2.5 μg/ml
Method: as §1

[15] = test system: Colletotrichum gloeosporioides (chili strain); test: as above; assay type: cell-based; settings: 5 μg/ml
Method: as §1

[16] = test system: Colletotrichum gloeosporioides (mango strain); test: as above; assay type: cell-based; settings: 5 μg/ml
Method: as §1

[17] = test system: Botrytis cinerea; test: Changes in the hyphal tips; assay type: cell-based; settings: compound in the media, 2 μg/ml
Excerpt: Apical dominance is an important criterion for growth of hyphae of fungi: at the apical tip of the mycelia branching is not seen near the growing tip. Apical dominance is maintained but branching of hyphae will start at sub-apical point, a distance away from the growth point. Under abnormal conditions of stress, apical dominance is lost, extensive branching begins, resulting in the growth of the fungal mycelia being arrested. When the test compound is incorporated in the media in which the fungi is present, hyphal tip splitting and branching is seen with loss of apical dominance and polarity. […] Hyphae from the inoculated disc start growing against gravity and are thicker than the normal hyphae seen in the control (the two upper pictures).

[18] = test system: Magnaporthe grisea; test: microbe, parasite or virus in culture; assay type: cell-based; settings: Pyricularia oryzae, read-out: % Mycelial growth Inhibition
[19] = test system: C. albicans ATCC-90028; test: MIC versus reference Candida strains (broth micro dilution); set-up: MICs (100% inhibition): unit not given beside the values; settings: for MIC: Candida albicans
[20] = test system: Sclerotium rolfsii; test: In vitro mycelial growth inhibition, poisoned plate; assay type: cell-based; settings: Agroathelia rolfsii, 50 μg/ml
[21] = test system: Macrophomina phaseolina; test: as above; assay type: cell-based; settings: 100 μg/ml
[22] = test system: Botryodiplodia theobromae; test: as above; assay type: cell-based; settings: Lasiodiplodia theobromae, 50 μg/ml
[23] = test system: Fusarium verticillioides; test: as above; assay type: cell-based; settings: 50 μg/ml
[24] = test system: Pythium aphanidermatum; test: as above; assay type: cell-based; settings: 50 μg/ml
[25] = test system: Fusarium oxysporum; test: Mycelial growth inhibition, disc diffusion assay; assay type: cell-based
[26] = test system: Rhizoctonia solani; test: In vitro mycelial growth inhibition, poisoned plate; assay type: cell-based; settings: 50 μg/ml

O=C([O-])CCCCCCCCCC#CC#Cc1ccco1.[K+] [Compound XII″, Potassium 14-(furan-2-yl)tetradeca-11,13-diynoate]
spores that did not germinate [1]: more than 50% | growth of the mycelia [2]: the growth of the mycelia is arrested | sporulation around the loaded disc [2]: no sporulation observed | Reduction in % disease index/germination [3]: 93% | MIC ([4]; ATCC6258): 0.64 µg/mL | MIC ([5]; ATCC24433): 0.01 µg/mL | Reduction in % disease index/germination ([6]; 10 μg/ml): 67% | Reduction in % disease index/germination ([6]; 20 μg/ml): 75% | Reduction in % disease index/germination ([7]; 10 μg/ml): 65% | Reduction in % disease index/germination ([7]; 20 μg/ml): 100% | MIC ([8]; ATCC90018): 5.12 µg/mL | MIC ([9]; ATCC22019): > 10.2 µg/mL | MIC ([10]; ATCC90030): 0.32 µg/mL | MIC [11]: 0.01 µg/mL | MIC ([12]; ATCC750): 0.01 µg/mL | inhibition at 50 µg/mL [13]: 42% | inhibition at 2.5 µg/mL [14]: 76% | inhibition at 5 µg/mL [15]: 10% | inhibition at 5 µg/mL [16]: 28% | toxicity to the fungus, hyphal changes [17]: toxic to the fungus Botrytis cinerea | inhibition at 5 µg/mL [18]: 27% | MIC ([19]; ATCC90028): 0.01 µg/mL

O=C(O)CCCCCCCCCC#CC#Cc1ccco1 [Compound X″]
inhibition at 50 µg/mL [20]: 5% | inhibition at 100 µg/mL [21]: 15% | MIC breakpoints ([4]; C. krusei ATCC 6258, CLSI M27-A3, growth inhibition of 100%, 35° C., 24 hrs): 1280 ng/mL (≈ 4.47 µM) | MICs (100% inhibition) ([4]; C. krusei ATCC 6258, NCCLS M27A, 35° C., 24 hrs): 1280 | MIC ([4]; ATCC6258, read-out: minimal inhibitory concentrations): 1.28 µg/mL (≈ 4.47 µM) | MIC breakpoints ([5]; C. albicans ATCC 24433, CLSI M27-A3, growth inhibition of 100%, 35° C., 24 hrs): 20 ng/mL (≈ 0.0698 µM) | MICs (100% inhibition) ([5]; C. albicans ATCC 24433, NCCLS M27A, 35° C., 24 hrs): 20 | MIC ([5]; ATCC24433, read-out: minimal inhibitory concentrations): 0.02 µg/mL (≈ 0.0698 µM) | MIC breakpoints ([8]; C. parapsilosis ATCC 90018, CLSI M27-A3, growth inhibition of 100%, 35° C., 24 hrs): >10240 ng/mL | MICs (100% inhibition) ([8]; C. parapsilosis ATCC 90018, NCCLS M27A, 35° C., 24 hrs): >10240 | MIC ([8]; ATCC90018, read-out: minimal inhibitory concentrations): > 10.2 µg/mL | MIC breakpoints ([9]; C. parapsilosis ATCC 22019, CLSI M27-A3, growth inhibition of 100%, 35° C., 24 hrs): >10240 ng/mL | MICs (100% inhibition) ([9]; C. parapsilosis ATCC 22019, NCCLS M27A, 35° C., 24 hrs): >10240 | MIC ([9]; ATCC22019, read-out: minimal inhibitory concentrations): > 10.2 µg/mL | MIC breakpoints ([10]; C. glabrata ATCC 90030, CLSI M27-A3, growth inhibition of 100%, 35° C., 24 hrs): 2560 ng/mL (≈ 8.94 µM) | MICs (100% inhibition) ([10]; C. glabrata ATCC 90030, NCCLS M27A, 35° C., 24 hrs): 2560 | MIC ([10]; ATCC90030, read-out: minimal inhibitory concentrations): 2.56 µg/mL (≈ 8.94 µM) | inhibition at 50 µg/mL [22]: 15% | MIC breakpoints ([12]; C. tropicalis ATCC 750, CLSI M27-A3, growth inhibition of 100%, 35° C., 24 hrs): 80 ng/mL (≈ 0.279 µM) | MICs (100% inhibition) ([12]; C. tropicalis ATCC 750, NCCLS M27A, 35° C., 24 hrs): 80 | MIC ([12]; ATCC750, read-out: minimal inhibitory concentrations): 0.08 µg/mL (≈ 0.279 µM) | inhibition at 50 µg/mL [23]: 14% | % Mycelial Growth Inhibition [24]: No inhibition | % Mycelial Growth Inhibition [25]: No inhibition | inhibition at 50 µg/mL [26]: 19% | MIC breakpoints ([19]; C. albicans ATCC 90028, CLSI M27-A3, growth inhibition of 100%, 35° C., 24 hrs): 20 ng/mL (≈ 0.0698 µM) | MICs (100% inhibition) ([19]; C. albicans ATCC 90028, NCCLS M27A, 35° C., 24 hrs): 20 | MIC ([19]; ATCC90028, read-out: minimal inhibitory concentrations): 0.02 µg/mL (≈ 0.0698 µM)

Source: patent US8722910B2, “Diyne compositions” (Evolva AG, priority 2009, dated 2014)
